Assay results taken from US20230338391A1, “TREATMENT FOR DEPRESSION” (TAKEDA PHARMACEUTICAL COMPANY LIMITED, priority 2020, published 2023).

Tested on: healthy subjects
Experiment: TMS crossover study: safety and tolerability
Conditions: 0.5 mg/kg IV infusion, 20 subjects

SMILES: CNC1(c2ccccc2Cl)CCCCC1=O (stereo not shown) [ketamine, reference compound]
- discontinuation because of AEs: One subject in the ketamine treatment was discontinued from study drug because of AEs
